Data taken from ChEMBL document CHEMBL1201862, “PubChem BioAssay data set” (2004).
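Method: 48-hour compound exposure of cells in 96-well plates, five concentrations, linear interpolation of endpoints. The concentration for 50% growth inhibition is given as GI50.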 The source made the active and inactive calls. No stated cut-off is given here; in the data, active = GI50 up to about 1.1 µM and inactive = higher.

Legend:
Experiment in all cases: NCI anticancer screen, dose series, 48 h
SF-268 = system: SF-268
SK-MEL-5 = system: SK-MEL-5
SF-295 = system: SF-295
M14 = system: M14
MOLT-4 = system: MOLT-4
SK-MEL-2 = system: SK-MEL-2
HCT-15 = system: HCT-15
NCI-H460 = system: NCI-H460
CCRF-CEM = system: CCRF-CEM
HCT-116 = system: HCT-116
HOP-62 = system: HOP-62
Hs-578T = system: Hs-578T
UO-31 = system: UO-31
NCI-H522 = system: NCI-H522
IGROV-1 = system: IGROV-1
CAKI-1 = system: CAKI-1
NCI-H23 = system: NCI-H23
U-251 = system: U-251
RPMI-8226 = system: RPMI-8226
TK-10 = system: TK-10
COLO 205 = system: COLO 205
UACC-62 = system: UACC-62
A549 = system: A549
K562 = system: K562
SNB-75 = system: SNB-75
HT-29 = system: HT-29
EKVX = system: EKVX
MDA-MB-231 = system: MDA-MB-231
MCF7 = system: MCF7
SF-539 = system: SF-539
SK-OV-3 = system: SK-OV-3
DU-145 = system: DU-145
OVCAR-3 = system: OVCAR-3
PC-3 = system: PC-3
NCI/ADR-RES = system: NCI/ADR-RES
SNB-19 = system: SNB-19
LOX IMVI = system: LOX IMVI
OVCAR-4 = system: OVCAR-4
UACC-257 = system: UACC-257
OVCAR-8 = system: OVCAR-8
RXF 393 = system: RXF 393
HOP-92 = system: HOP-92
786-0 = system: 786-0
ACHN = system: ACHN
HL-60 = system: HL-60
SW-620 = system: SW-620
SK-MEL-28 = system: SK-MEL-28
OVCAR-5 = system: OVCAR-5
NCI-H226 = system: NCI-H226
SN12C = system: SN12C
KM12 = system: KM12
HCC 2998 = system: HCC 2998
Malme-3M = system: Malme-3M
MDA-MB-435 = system: MDA-MB-435
A498 = system: A498
MDA-N = system: MDA-N
BT-549 = system: BT-549
SR = system: SR

Measured: GI50

COc1c(OC(C)C)c(OC(C)C)c2oc(=O)n3c2c1C(c1ccccc1-n1c(C)ccc1C)C=C3 (configuration not stated)
61.8 µM: HCT-15
inactive: SF-268 38.1 µM | SK-MEL-5 98.4 µM | SF-295 74.3 µM | M14 29.2 µM | MOLT-4 42.5 µM | SK-MEL-2 95.9 µM | NCI-H460 41.9 µM | CCRF-CEM 71.9 µM | HCT-116 16.7 µM | HOP-62 30.5 µM | Hs-578T 18.5 µM | UO-31 36.1 µM | NCI-H522 26.7 µM | IGROV-1 39.9 µM | CAKI-1 > 100 µM | NCI-H23 34.8 µM | U-251 > 100 µM | RPMI-8226 64.6 µM | TK-10 > 100 µM | COLO 205 > 100 µM | UACC-62 44.7 µM | A549 39.4 µM | K562 > 100 µM | SNB-75 41.8 µM | HT-29 12.6 µM | EKVX 17.6 µM | MDA-MB-231 45 µM | MCF7 33 µM | SF-539 67.5 µM | SK-OV-3 > 100 µM | DU-145 60.4 µM | OVCAR-3 > 100 µM | PC-3 14.2 µM | NCI/ADR-RES 33.6 µM | SNB-19 > 100 µM | LOX IMVI 21.5 µM | OVCAR-4 75 µM | UACC-257 45 µM | OVCAR-8 35.3 µM | RXF 393 22 µM | HOP-92 53.7 µM | 786-0 80.7 µM | ACHN 48.8 µM | HL-60 > 100 µM | SW-620 32.5 µM | SK-MEL-28 37.8 µM | OVCAR-5 > 100 µM | NCI-H226 17.1 µM | SN12C 71.9 µM | KM12 22.9 µM | HCC 2998 37.9 µM | Malme-3M 13 µM | MDA-MB-435 35.2 µM | A498 92.5 µM | MDA-N 29.2 µM | BT-549 > 100 µM

NC(=O)C(N)Cc1ccc(O)cn1 (configuration not stated)
> 100 µM: HCT-15
inactive: SF-268 > 100 µM | SK-MEL-5 > 100 µM | SF-295 > 100 µM | MOLT-4 > 100 µM | NCI-H460 > 100 µM | CCRF-CEM > 100 µM | HCT-116 > 100 µM | HOP-62 > 100 µM | Hs-578T > 100 µM | UO-31 > 100 µM | NCI-H522 > 100 µM | IGROV-1 > 100 µM | CAKI-1 > 100 µM | NCI-H23 > 100 µM | U-251 > 100 µM | RPMI-8226 > 100 µM | TK-10 > 100 µM | COLO 205 > 100 µM | A549 > 100 µM | K562 > 100 µM | SNB-75 > 100 µM | HT-29 > 100 µM | EKVX > 100 µM | MDA-MB-231 > 100 µM | MCF7 > 100 µM | SF-539 > 100 µM | DU-145 > 100 µM | OVCAR-3 > 100 µM | PC-3 > 100 µM | NCI/ADR-RES > 100 µM | SNB-19 > 100 µM | LOX IMVI > 100 µM | OVCAR-4 > 100 µM | UACC-257 > 100 µM | OVCAR-8 > 100 µM | RXF 393 > 100 µM | HOP-92 > 100 µM | 786-0 > 100 µM | ACHN > 100 µM | HL-60 > 100 µM | SW-620 > 100 µM | SK-MEL-28 > 100 µM | OVCAR-5 > 100 µM | SR > 100 µM | NCI-H226 > 100 µM | SN12C > 100 µM | KM12 > 100 µM | HCC 2998 > 100 µM | Malme-3M > 100 µM | MDA-MB-435 > 100 µM | A498 > 100 µM | MDA-N > 100 µM | BT-549 > 100 µM

COc1ccc(C2=NOC(N)(c3ccc(OC)cc3)C2)cc1 (configuration not stated)
inactive: SK-MEL-5 56.9 µM | SF-295 > 100 µM | M14 > 100 µM | MOLT-4 > 100 µM | SK-MEL-2 > 100 µM | NCI-H460 > 100 µM | CCRF-CEM > 100 µM | HCT-116 > 100 µM | HOP-62 64.7 µM | Hs-578T 81.1 µM | UO-31 > 100 µM | NCI-H522 > 100 µM | IGROV-1 > 100 µM | CAKI-1 > 100 µM | NCI-H23 > 100 µM | U-251 > 100 µM | RPMI-8226 > 100 µM | TK-10 > 100 µM | COLO 205 > 100 µM | UACC-62 > 100 µM | A549 > 100 µM | K562 > 100 µM | SNB-75 > 100 µM | HT-29 > 100 µM | EKVX > 100 µM | MDA-MB-231 81.5 µM | MCF7 > 100 µM | SF-539 > 100 µM | SK-OV-3 > 100 µM | DU-145 > 100 µM | OVCAR-3 > 100 µM | PC-3 > 100 µM | NCI/ADR-RES > 100 µM | SNB-19 > 100 µM | LOX IMVI > 100 µM | OVCAR-4 86.5 µM | UACC-257 > 100 µM | OVCAR-8 > 100 µM | HOP-92 > 100 µM | 786-0 90.8 µM | ACHN > 100 µM | HL-60 38.2 µM | SW-620 > 100 µM | SK-MEL-28 > 100 µM | OVCAR-5 > 100 µM | SR > 100 µM | NCI-H226 > 100 µM | SN12C > 100 µM | KM12 30.8 µM | HCC 2998 > 100 µM | Malme-3M 66.5 µM | MDA-MB-435 > 100 µM | A498 29 µM | MDA-N > 100 µM | BT-549 > 100 µM
> 100 µM: HCT-15
